Consider three compounds from patent US20160113919A1 (The Board of Trustees of the Leland Stanford Junior …, priority 2014, published 2016).

For this assay, the system named is virulent Mtb strain H37Rv. In kind it is cell-based, Mycobacterium tuberculosis.

For `CCN(CC)CCC[C@H](C)Nc1ccnc2cc(Cl)ccc12` [S-CQ, (S)-chloroquine], the “EC80 (microbicidal activity, TB replication in macrophages)” value was about 10 µM.
Same read-out and setting: under `CCN(CC)CCCC(C)Nc1ccnc2cc(Cl)ccc12` (racemic) [racemic CQ, chloroquine] stands about 10 µM.
Regarding `CCN(CC)CCC[C@@H](C)Nc1ccnc2cc(Cl)ccc12` [R-CQ, (R)-chloroquine], the “EC80 (microbicidal activity, TB replication in macrophages)” value is 1 µM and the “microbicidal activity compared with S-CQ or racemic CQ” value is “significantly higher”.
